Source: patent publication US11590092B2, “Skin probiotic” (The Regents of the University of California, priority 2014, dated 2023)

Experiments:
[1] = Skin wound healing without USA300 inoculation; format: in vivo, ICR mice; settings: topical 100 mM propionic acid vs PBS (pH 7.1) and PBS/pH (pH 3.5), 8-day period
Method: ICR mice (2-3-month-old female) were anesthetized by isoflurane. In each experiment, there were five mice per group. A wound 5 mm in length was made on the dorsal skin after shaving with electrical clippers. Once the skin wound was created, 5 μl of propionic acid (100 mM), PBS (pH 7.1) or PBS (pH 3.5) was applied topically to the wounded areas. The wounds were left uncovered throughout the experimental period. For bacterial infection, USA300 (2×10^6 CFU in PBS) was applied topically to the wounded areas 10 min after application of propionic acid or PBS. For the measurement of the extent of wound closure, a transparent parafilm was put on the top of the wounded skin. The wound area was marked on the parafilm by drawing an area which covered the whole skin wound. The lesion size was measured daily for 8 days was calculated using the ImageJ software [National Institutes of Health (NIH), Bethesda, Md., USA] and expressed as mm^2. Student's t-test was used to determine the significance of the differences between groups of the PBS (pH 7.1)- and propionic acid-treated mice as well as the PBS (pH 7.1)- and PBS (pH 3.5)-treated mice. Data represent the mean±SD from three independent experiments. All experiments using mice were conducted in a Biosafety Level 2 (BSL-2) facility and with accordance to institutional guidelines for animal experiments.

[2] = tested on: USA300; assay: Measurement of intracellular pH of USA300 (cFSE probe); format: cell-based, Staphylococcus aureus; settings: 25 mM propionic acid, vs PBS
Method: Measurement of intracellular pH. […] A drop in relative fluorescence indicated the decrease in intracellular pH. […] The fluorescence of the bacteria-free supernatant was measured and deducted from values for the treated suspensions.
Fluorescence was measured for 5 min every min using an excitation wavelength of 490 nm and an emission wavelength of 520 nm. A reduction in relative fluorescence reflected a decrease in intracellular pH. Fluorescence of bacteria-free supernatant obtained by centrifugation at 5,000×g for 5 min after the 5-min assay was measured to correct for background fluorescence. Calibration curves were obtained by incubation of untreated, cFSE-loaded bacteria in buffer containing 50 mM glycine, 50 mM citric acid, 50 mM Na2HPO4.2H2O and 50 mM KCl adjusted to various pH values from 4-10. 1 μM valinomycin and nigericin (Sigma) were added to equilibrate the intracellular and extracellular pH.

[3] = tested on: E. coli; assay: Minimal bactericidal concentration test against E. coli; format: cell-based, Escherichia coli; settings: MBC test
Method: (§1) To determine the minimal bactericidal concentration (MBC) and minimal fungicidal concentration (MFC) of propionic acid, microorganisms (10^6 colony forming units (cfu)/ml) were incubated overnight in media with propionic acid (1.25-2,000 mM) in a 96-well microplate (100 μl per well). The control only received PBS. After incubation, the microorganisms were diluted 1:10-1:10^6 into PBS. The dilutions (5 μl) were spotted onto agar media to count cfu; MBC/MFC were determined at 99.9% killing level. To determine the effect of pH on growth of S. aureus USA300, the bacterium was incubated in TSB at pH 5.8 and 6.8, and TSB with 25 mM propionic acid at pH 5.8 and 6.8 (buffered with 4-(2-hydroxyethyl)-1-piperazineethanesulfonic acid (HEPES)) in a 96-well microplate overnight before spotting onto agar plates.

[4] = tested on: P. acnes; assay: MBC test of propionic acid against P. acnes; format: cell-based, Propionibacterium acnes
Method: as §1

[5] = tested on: E. coli; assay: Radial diffusion assay against E. coli; format: cell-based, Escherichia coli
Method: A radial diffusion assay (RDA) was performed as follows. Briefly, microorganisms in the mid-log phase were centrifuged at 12,000×g for 10 min, washed with PBS, and dispersed (10^5 cfu/ml) in agar consisting of 1% (w/v) agarose (Sigma) and 3% (w/v) culture medium in PBS at 42° C. Then, the agar was poured into Petri dishes and solidified. Wells (diameter 3 mm and volume 30 μl) were created by poking a pipette tip into the semi-solidified agar. Propionic acid was serially diluted in PBS to concentrations ranging from 5 to 2,000 mM, and 30 μl aliquots were added to the wells; PBS served as the control. After 3 h of incubation, a 10 ml overlay gel composed of 3% culture medium and 1% agarose was poured onto the plates, where after the plates were incubated overnight and examined for zones of growth inhibition.

CCC(=O)O [propionic acid]
changes in lesion sizes of wounds without USA300 inoculation [1]: not statistically different
intracellular pH of USA300 [2]: considerably lowered
concentration that completely killed E. coli [3]: ≥ 50 mM
concentration that effectively suppressed the growth of E. coli [3]: greater than 10 mM
concentration at which growth inhibition of P. acnes was detectable ([4]; MBC tests, 5 to 2,000 mM tested): greater than 1000 mM
growth of P. acnes ([4]; propionic acid 25 mM): did not affect the growth
growth of P. acnes ([4]; propionic acid between 5 and 500 mM, MBC tests): did not affect the growth
minimum effective concentration for growth inhibition zones, E. coli [5]: 10 mM
